The source of these data is ChEMBL document CHEMBL1135741, “Synthesis and biological evaluation of analogues of the peptaibol ampullosporin A” (J Med Chem, 2002).

The species entered for experiment [1] is Mus musculus. Briefly: Evaluated for its ability to modify the core body temperature of mice; No activity. The class given is functional, organism-based.
In experiment [2] the test system is Remotididymella destructiva. The experiment in a line: Evaluated for pigment induction capacity based on the Phoma destructiva halo color; No activity. The class given is functional, organism-based.

Where a SMILES comes first, the peptide text is derived from it. [ ]: non-standard residue; d: D form. ξ: configuration not given here. Oic(3aξ,7aξ) = O=C(O)[C@@H]1CC2CCCCC2N1; 2Nal = N[C@@H](Cc1ccc2ccccc2c1)C(=O)O; Igl = N[C@H](C(=O)O)C1Cc2ccccc2C1; Tic = O=C(O)[C@@H]1Cc2ccccc2CN1; Leu(ol) = CC(C)C[C@H](N)CO; Aib = CC(C)(N)C(=O)O

For `CC[C@@H](C)[C@H](NC(=O)[C@H](CC(C)C)NC(=O)[C@@H](NC(=O)[C@@H](NC(=O)[C@H](C)NC(=O)[C@H](Cc1c[nH]c2ccccc12)NC(C)=O)[C@@H](C)CC)[C@H](C)CC)C(=O)N[C@@H](CCC(N)=O)C(=O)N[C@H](C(=O)N[C@H](C(=O)N[C@H](C(=O)N[C@@H](CCC(N)=O)C(=O)N[C@@H](CC(C)C)C(=O)N[C@H](C(=O)N[C@@H](CCC(N)=O)C(=O)N[C@H](CO)CC(C)C)[C@@H](C)CC)[C@H](C)CC)[C@@H](C)CC)[C@H](C)CC`, the NA entry in experiment [1] and in experiment [2] was “No activity” in each case.
With `CC(=O)N[C@@H](C)C(=O)NC(C)(C)C(=O)NC(C)(C)C(=O)N[C@@H](CC(C)C)C(=O)NC(C)(C)C(=O)N[C@@H](CCC(N)=O)C(=O)NC(C)(C)C(=O)NC(C)(C)C(=O)NC(C)(C)C(=O)N[C@@H](CCC(N)=O)C(=O)N[C@@H](CC(C)C)C(=O)NC(C)(C)C(=O)N[C@@H](CCC(N)=O)C(=O)N[C@H](CO)CC(C)C` (Ac-A[Aib][Aib]L[Aib]Q[Aib][Aib][Aib]QL[Aib]Q[Leu(ol)]), the NA result in experiment [1] and in experiment [2] was “No activity” throughout.
With `CC(=O)N[C@@H](Cc1c[nH]c2ccccc12)C(=O)N[C@@H](C)C(=O)N[C@@H](C)C(=O)N[C@@H](C)C(=O)N[C@@H](CC(C)C)C(=O)N[C@@H](C)C(=O)N[C@@H](CCC(N)=O)C(=O)N[C@@H](C)C(=O)N[C@@H](C)C(=O)N[C@@H](C)C(=O)N[C@@H](CCC(N)=O)C(=O)N[C@@H](CC(C)C)C(=O)N[C@@H](C)C(=O)N[C@@H](CCC(N)=O)C(=O)N[C@H](CO)CC(C)C` (Ac-WAAALAQAAAQLAQ[Leu(ol)]), the NA entry in experiment [1] and in experiment [2] was “No activity” in each case.
On to `CC(=O)N[C@@H](Cc1c[nH]c2ccccc12)C(=O)N[C@@H](C)C(=O)NC(C)(C)C(=O)NC(C)(C)C(=O)N[C@@H](CC(C)C)C(=O)N[C@@H](C)C(=O)N[C@@H](CCC(N)=O)C(=O)NC(C)(C)C(=O)NC(C)(C)C(=O)NC(C)(C)C(=O)N[C@@H](CCC(N)=O)C(=O)N[C@@H](CC(C)C)C(=O)NC(C)(C)C(=O)N[C@@H](CCC(N)=O)C(=O)N[C@H](CO)CC(C)C` (Ac-WA[Aib][Aib]LAQ[Aib][Aib][Aib]QL[Aib]Q[Leu(ol)]), for which the NA entry in experiment [1] was “No activity”.
On to `CC(=O)N[C@@H](Cc1c[nH]c2ccccc12)C(=O)N[C@@H](C)C(=O)NC(C)(C)C(=O)NC(C)(C)C(=O)N[C@@H](CC(C)C)C(=O)NC(C)(C)C(=O)N[C@@H](CCC(N)=O)C(=O)NC(C)(C)C(=O)NC(C)(C)C(=O)NC(C)(C)C(=O)N[C@@H](CCC(N)=O)C(=O)N[C@@H](CC(C)C)C(=O)NC(C)(C)C(=O)N[C@@H](CCC(N)=O)C(=O)O` (Ac-WA[Aib][Aib]L[Aib]Q[Aib][Aib][Aib]QL[Aib]Q-OH), for which the NA entry in experiment [1] and in experiment [2] was “No activity” each time.
As for `CC(=O)N[C@@H](Cc1ccc2ccccc2c1)C(=O)N[C@@H](C)C(=O)NC(C)(C)C(=O)NC(C)(C)C(=O)N[C@@H](CC(C)C)C(=O)NC(C)(C)C(=O)N[C@@H](CCC(N)=O)C(=O)NC(C)(C)C(=O)NC(C)(C)C(=O)NC(C)(C)C(=O)N[C@@H](CCC(N)=O)C(=O)N[C@@H](CC(C)C)C(=O)NC(C)(C)C(=O)N[C@@H](CCC(N)=O)C(=O)N[C@H](CO)CC(C)C` (Ac-[2Nal]A[Aib][Aib]L[Aib]Q[Aib][Aib][Aib]QL[Aib]Q[Leu(ol)]), in experiment [1], the NA result was “No activity”.
Still for that read-out and setting: the entry for `CC(=O)N[C@H](C(=O)N[C@@H](C)C(=O)NC(C)(C)C(=O)NC(C)(C)C(=O)N[C@@H](CC(C)C)C(=O)NC(C)(C)C(=O)N[C@@H](CCC(N)=O)C(=O)NC(C)(C)C(=O)NC(C)(C)C(=O)NC(C)(C)C(=O)N[C@@H](CCC(N)=O)C(=O)N[C@@H](CC(C)C)C(=O)NC(C)(C)C(=O)N[C@@H](CCC(N)=O)C(=O)N[C@H](CO)CC(C)C)C1Cc2ccccc2C1` (Ac-[Igl]A[Aib][Aib]L[Aib]Q[Aib][Aib][Aib]QL[Aib]Q[Leu(ol)]) is “No activity”.
As for `CC(=O)N1C2CCCCC2C[C@H]1C(=O)N[C@@H](C)C(=O)NC(C)(C)C(=O)NC(C)(C)C(=O)N[C@@H](CC(C)C)C(=O)NC(C)(C)C(=O)N[C@@H](CCC(N)=O)C(=O)NC(C)(C)C(=O)NC(C)(C)C(=O)NC(C)(C)C(=O)N[C@@H](CCC(N)=O)C(=O)N[C@@H](CC(C)C)C(=O)NC(C)(C)C(=O)N[C@@H](CCC(N)=O)C(=O)N[C@H](CO)CC(C)C` (some centres not stated) (Ac-[Oic(3aξ,7aξ)]A[Aib][Aib]L[Aib]Q[Aib][Aib][Aib]QL[Aib]Q[Leu(ol)]), the NA result in experiment [1] and in experiment [2] was “No activity” in each case.
Regarding `CC(=O)N1Cc2ccccc2C[C@H]1C(=O)N[C@@H](C)C(=O)NC(C)(C)C(=O)NC(C)(C)C(=O)N[C@@H](CC(C)C)C(=O)NC(C)(C)C(=O)N[C@@H](CCC(N)=O)C(=O)NC(C)(C)C(=O)NC(C)(C)C(=O)NC(C)(C)C(=O)N[C@@H](CCC(N)=O)C(=O)N[C@@H](CC(C)C)C(=O)NC(C)(C)C(=O)N[C@@H](CCC(N)=O)C(=O)N[C@H](CO)CC(C)C` (Ac-[Tic]A[Aib][Aib]L[Aib]Q[Aib][Aib][Aib]QL[Aib]Q[Leu(ol)]), the NA result in experiment [1] was “No activity”.
For the compound `CC(C)C[C@@H](CO)NC(=O)[C@H](CCC(N)=O)NC(=O)C(C)(C)NC(=O)[C@H](CC(C)C)NC(=O)[C@H](CCC(N)=O)NC(=O)C(C)(C)NC(=O)C(C)(C)NC(=O)C(C)(C)NC(=O)[C@H](CCC(N)=O)NC(=O)C(C)(C)NC(=O)[C@H](CC(C)C)NC(=O)C(C)(C)NC(=O)C(C)(C)NC(=O)[C@H](C)N` (H-A[Aib][Aib]L[Aib]Q[Aib][Aib][Aib]QL[Aib]Q[Leu(ol)]), the NA entry in experiment [1] and in experiment [2] was “No activity” throughout.
Consider `CC(C)C[C@@H](CO)NC(=O)[C@H](CCC(N)=O)NC(=O)C(C)(C)NC(=O)[C@H](CC(C)C)NC(=O)[C@H](CCC(N)=O)NC(=O)C(C)(C)NC(=O)C(C)(C)NC(=O)C(C)(C)NC(=O)[C@H](CCC(N)=O)NC(=O)C(C)(C)NC(=O)[C@H](CC(C)C)NC(=O)C(C)(C)NC(=O)C(C)(C)NC(=O)[C@H](C)NC(=O)[C@@H](N)Cc1c[nH]c2ccccc12` (H-WA[Aib][Aib]L[Aib]Q[Aib][Aib][Aib]QL[Aib]Q[Leu(ol)]), for which the NA entry in experiment [1] is “No activity”.
